For one series, the system named is CYP. The following applies: CYP isoforms induced; ref Abadie et al. (2009), Richert et al. (2010), Preissner et al. (2010), Hoffmann et al. (2014); cited from earlier work.
Another series has as its system PHH. As to the kind of experiment: Cytotoxicity assay (resazurin) in PHH, 72 hours. The series is classed as cell-based, human. The settings on record: viability reduction <20%. On the procedure: (§1) Potential cytotoxicity of the validation set chemicals for PHH and HepaRG cells was determined starting from the highest soluble concentration, followed by a 1:1 or 1:3 dilution for PHH and HepaRG cells, respectively. The incubation time reflected the conditions used for the induction assays (72 hours and 48 hours of incubation for PHH and HepaRG cells, respectively). The cytotoxicity assay was based on the conversion of redox dye resazurin to fluorescent resorufin by living cells. Non-viable cells, without metabolic capacity, yield no fluorimetry signal.
(§2) Results were expressed as fractional survival (FS %) with respect to untreated controls and were calculated based on measured relative fluorescent units (RFU), corrected for the background signal: %FS=RFUtreated cells−meanRFUbackground/RFUuntreated cells−meanRFUbackgroundx100
(§3) Cytotoxicity was evaluated from the dose-response curve, where the mean FS (%) of three technical replicates was plotted versus the corresponding concentration.
(§4) The SOP acceptance criteria required a cell viability of 50-70 % for doxorubicin (8 μM, HepaRG cells) and ≤70 % for chlorpromazine (25 μM, PHH), the cytotoxicity reference items. The highest concentration with viability reduction <20% (PHH) or <10% (HepaRG) was eligible as starting concentration for the induction assay.
(In general: The colour change of resazurin is a common sign of viable cells or microbes.)

A short description of series [1]: Solubility by visual inspection (DMSO stock solution and assay medium). The series is classed as physicochemical. The settings on record: assay medium. Here is the method:
The SOPs relied on visual inspection for solubility observation. […] The absence of precipitation in the medium was checked pre- and post-incubation (24 hours) by centrifugation of the sample and observation of any precipitation (pellet residue).

In the next series the test system is CYP1A2. The following applies: human in vivo; CYP named without remark = induced; ref references in the cell, Washington University database, Hoffmann et al. (2014), Pelkonen et al. (2008), Hukkanen et al. (2012); cited from earlier work.
The subject of the next series is HepaRG cells. As to the kind of experiment: Cytotoxicity assay (resazurin) in HepaRG cells, 48 hours. It is filed as cell-based, human. The following applies: viability reduction <10%. On the procedure:
as §1, §2, §3, §4

A short description of series [2]: Solubility by nephelometry (EURL ECVAM). It is filed as physicochemical. An outline of the steps:
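Turbidity from insolubility detected by laser nephelometry (Tyndall light scatter). Formazin standards at 1, 5, 10 and 20 NTU used to calculate relative turbidity; 1 NTU equals solvent/medium blank background, with sensitivity to 5 NTU.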

The structures appear in SMILES notation.

As for `OCc1c[nH]c2ccccc12` [Indole-3-carbinol], the “CYP induction in vitro (human hepatocytes)” value with CYP was “CYP1A2”. In addition, in the series on PHH, the “highest soluble non cytotoxic concentration used for the subsequent induction assay, PHH” value is “insoluble (excluded)”. Also, the HepaRG medium stability in series [1] (Lab 1, visual observation) was 5 µg/mL; in series [1] (Lab 2, visual observation), 10 µg/mL; in series [1] (Lab 3, visual observation) it was 10 µg/mL; in series [2] (ECVAM nephelometry, HepaRG medium, ^2 = solubility limit), 10^2 μg/mL. The PHH medium stability in series [1] (Lab 4, visual observation) was 10 µg/mL; in series [1] (Lab 5, visual observation), 20 µg/mL; in series [1] (Lab 6, visual observation), 20 µg/mL; in series [2] (ECVAM nephelometry, PHH medium, ^2 = solubility limit) it was 10^2 μg/mL. Moreover, in the series on CYP1A2, the “CYP induction in vivo literature reference: CYP1A2” value is “CYP 1A2 ([Reed et al., 2005]) CYP2B6/CYP3A4 NO studies”. Besides, in the series on HepaRG cells, the “highest soluble non cytotoxic concentration used for the subsequent induction assay, HepaRG” value was “insoluble (excluded)”. In series [2] (40 μg/ml, the two media), the “nephelometry finding in assay medium” value is reported as “insoluble suspensions”.

The values are drawn from publication PMC6718736, “Validation of in vitro methods for human cytochrome P450 enzyme induction: Outcome of a multi-laboratory study” (Toxicology in Vitro, 2019).
